{"source": "patent US20160115200A1", "about": "“New Use for JNK Inhibitor Molecules for Treatment of Various Diseases” (XIGEN INFLAMMATION LTD., priority 2013, published 2016)", "key": {"human whole blood": {"test_system": "human whole blood", "experiment": "Cytokine release in human whole blood stimulated 4 hours with LPS or PMA+ionomycin", "assay_type": "cell-based", "conditions": "human whole blood, 1, 3, 10 μM", "method": "FIG. 18 JNK inhibition and IL-6 release in human whole blood. The JNK inhibitor with SEQ ID NO: 172 was added at three different concentrations, namely 1, 3 and 10 μM 1 h before whole blood stimulation with LPS (0.02 ng/mL) for 4 hours.\nFIG. 19 JNK inhibition and IL-2 release in human whole blood. The JNK inhibitor with SEQ ID NO: 172 was added at three different concentrations, namely 1, 3 and 10 μM 1 h before whole blood stimulation with PMA+ionomycin (25/700 ng/mL, 50/800 ng/mL and 50/1000 ng/mL) for 4 hours.\nWhole blood is collected from anesthetized rat or human healthy volunteers using a venipuncture connected to a pre-labeled vacuum tube containing sodium citrate. Tubes are gently mixed by inversion 7-8 times; and are then kept at RT until stimulation. JNK inhibitor of SEQ ID NO: 172 is prepared 6 times concentrated in PBS, and 30 μl/well of mix is added into 96-well plate. Whole blood is diluted by 1:2 in PBS and 120 μl of diluted blood is added in each well where either PBS alone or JNK inhibitor of SEQ ID NO: 172 has been previously added. Whole blood is incubated at 37° C.; 85 rpm (Stuart Orbital incubator SI500) for 60 min. Activators (LPS) are the prepared, 30 μl/well of LPS, 6 times concentrated. After 60 min incubation, LPS is added to the blood, blood is mixed by pipetting up and down, and then kept for 4 h under agitation (85 rpm), at 37° C. After the 4 h incubation, the plates are centrifuged at about 770 g, 4° C. for 15 min in a pre-cooled centrifuge. Supernatants are finally collected and kept at −20° C. until cytokine measurement. Cytokine (IL-6, IL-2, IFNγ and TNFα) were then measured using standard Elisa kits (e.g. from R&D Systems: DuoSet Elisas; or from BD Biosciences: BD Opteia Set Elisa). Results are expressed as pg/ml of supernatant of the measured cytokine.\nA similar experiment was conducted with PMA+ionomycin instead of LPS as activator/stimulant."}, "[1]": {"test_system": "THP1-PMA-differentiated macrophages", "experiment": "LPS-induced cytokine and chemokine release in PMA differentiated THP1 macrophages (ELISA)", "assay_type": "cell-based, human", "source_text": "The technique used is a Sandwich ELISA, which allows measuring the amount of antigen between two layers of antibodies (i.e. capture and detection antibody). The antigen to be measured must contain at least two antigenic sites capable of binding to antibody, since at least two antibodies act in the sandwich. Either monoclonal or polyclonal antibodies can be used as the capture and detection antibodies in Sandwich ELISA systems. Monoclonal antibodies recognize a single epitope that allows fine detection and quantification of small differences in antigen. A polyclonal is often used as the capture antibody to pull down as much of the antigen as possible.\nIn the following the procedure will be set forth describing how cytokine production from human PMA differentiated THP1 cells challenged by LPS for 6 h was induced in order to test the ability of JNK inhibitors of the present invention, in particular of a JNK inhibitor with SEQ ID NO: 172, to reduce stimulation-induced cytokine release. THP1 cells were stimulated ex-vivo by different ligands for the readout of cytokine release. At non toxic doses, JNK inhibitor efficacy is indicated by the decrease of the cytokine levels as compared to non-treated samples and is monitored by ELISA. The toxicity of the compound are evaluated by the reduction of a tretazolium salt (MTS) to formazan, giving a purple colour.\nThe cells were counted. The desired number of cells was taken and resuspended in the amount of media necessary to get a dilution of 1'000'000 cells/ml. 100 nM of PMA was added to induce the differentiation of the THP1 from suspension monocytes to adherent macrophages. The cells were plated into the wells in […] medium at plating densities of 100'000 cells/well. After inoculation, the plates were incubated at 37° C., 5% CO2 and 100% relative humidity 3 days to let them differentiate, prior to the addition of experimental drugs.\nThe plates were treated with 50 µl of medium or a solution of 4× the final desired drug concentration (0, 100 nM, 1, 3, 10 or 30 µM final for JNK compound or at 0, 10, 100 nM, 1, 3 or […] final for the SP600125 positive control). Following drug addition, the plates were incubated for an additional 1 h at 37° C., 5% CO2 and 100% relative humidity. […]\nAfter 6 hours, 100 µl of the supernatant were transferred to new 96 well plates. Those plates were sealed and stored at −20° till the analysis by ELISA (e.g. see example 4) of the secretion of the cytokines.\nAnalyses of the data are performed as indicated in the ELISA (see example 4). Briefly, for ELISA: Average the triplicate readings for each standard control and each sample. Subtract the average zero standard optical density (O.D). Create a standard curve plotting the log of the cytokine concentration versus the log of the O.D and the best fit line can be determined by regression analysis. If samples have been diluted, the concentration read from the standard curve must be multiplied by the dilution factor. A standard curve should be generated for each set of samples assayed. The outliers data were avoid using Grugg's test. Then the data which weren't in the interval of two times the SD, were discard. […] The independent experiments are pooled (N>3)."}}, "note": "Square brackets hold non-standard residues; d marks the D form. Peptide text beside a SMILES is read from it.", "data": [{"smiles": "CC(C)C[C@H](NC(=O)[C@H](CC(N)=O)NC(=O)[C@H](CC(C)C)NC(=O)[C@@H](NC(=O)[C@@H](C)NC(=O)[C@@H]1CCCN1C(=O)[C@H](CCCNC(=N)N)NC(=O)[C@@H](CCCCN)NC(=O)[C@@H]1CCCN1C(=O)[C@H](CCCNC(=N)N)NC(=O)[C@@H](CCCNC(=N)N)NC(=O)[C@H](CCCNC(=N)N)NC(=O)[C@H](CCCNC(=N)N)NC(=O)[C@H](CCC(N)=O)NC(=O)[C@@H](CCCNC(=N)N)NC(=O)[C@H](CCCNC(=N)N)NC(=O)[C@H](CCCCN)NC(=O)[C@H](CCCCN)NC(=O)[C@H](N)CCCNC(=N)N)[C@@H](C)O)C(=O)N[C@H](Cc1ccccc1)C(N)=O", "note": "[SEQ ID NO: 172, rKKRrQRRrRPkRPaTLNLf] (H-[dR]KKR[dR]QRR[dR]RP[dK]RP[dA]TLNL[dF]-NH2)", "values": [{"measurement": "PMA+ionomycin-induced IFN-γ release", "setting": "human whole blood", "value": "reduce the PMA+ionomycin-induced IFN-γ release in a dose-dependent manner"}, {"measurement": "PMA+ionomycin-induced IL-2 release", "setting": "human whole blood", "value": "reduce the PMA+ionomycin-induced IL-2 release in a dose-dependent manner"}, {"measurement": "PMA+ionomycin-induced TNF-α release", "setting": "human whole blood", "value": "reduce the PMA+ionomycin-induced TNF-α release in a dose-dependent manner"}, {"measurement": "LPS-induced IL-6 release", "setting": "human whole blood; LPS 0.02 ng/mL", "value": "reduce the LPS-induced IL-6 release in a dose-dependent manner"}, {"measurement": "LPS-induced IL6 release, potency compared with SEQ ID NO: 197, SEQ ID NO: 45 and SP 600125", "setting": "[1]; LPS 6 h (10 ng/ml)", "value": "higher potency"}, {"measurement": "LPS-induced TNFα release, potency compared with SEQ ID NO: 197, SEQ ID NO: 45 and SP 600125", "setting": "[1]; LPS 6 h (10 ng/ml)", "value": "higher potency"}, {"measurement": "LPS-induced TNFα release, potency compared with SEQ ID NO: 197 and SEQ ID NO: 196", "setting": "[1]; PMA differentiated macrophages", "value": "higher potency"}, {"measurement": "LPS-induced IL-6 release, potency compared with SEQ ID NO: 197 and SEQ ID NO: 196", "setting": "[1]; PMA differentiated macrophages, LPS 6 h", "value": "higher potency"}, {"measurement": "LPS-induced cytokine and chemokine release (TNF, IL 6, MCP1)", "setting": "[1]; THP1pma, 6 h, 3 or 10 ng/ml LPS", "value": "blocks LPS-induced cytokine and chemokine release"}]}]}
